Patent US9220714B2, “Nitrofuran compounds for the treatment of cancer and angiogenesis” (WOMEN AND INFANTS HOSPITAL OF RHODE ISLAND, priority 2006, dated 2015)
≈ marks a conversion by molar mass, not a printed value. Read-outs that look alike come from different tables or passages of the source.

Key:
SMS-KCNR cells [1] = experiment: cells; conditions: Homo sapiens
Procedure: (§1) Cell viability was assessed using the MTS assay as described in Materials and Methods and expressed as percent of vehicle treated control. The data represents the mean SSD of four replicates.
SMS-KCNR cells were pretreated with pancaspase inhibitor, Z-VAD-FMK. […] Cell viability was measured by MTS assay. The reversal of cytotoxicity by pancaspase inhibitor was determined by comparing the viability of riifurtimox treated cells in the presence or absence of the pancaspase inhibitor. The values are the Mean±SD of quadruplicates.
(§2) The human neuroblastoma cell lines IMR-32 (ATCC), SMS-KCN, SMS-KCNR (from John Maris, CHOP, Philadelphia, Pa.) were maintained in RPMI 1640 media supplemented with 10% fetal bovine serum, 100 units/ml penicillin and 100 μg/ml streptomycin at 37° C. in a humidified incubator. Cells were grown in 6 well plates or 100 mm dishes to 75% confluency and serum deprived (RPMI 1640 with 0.1% BSA) overnight before treatment.
(§3) Cell viability was measured using the CellTiter 96 AQ One Solution Cell Proliferation Assay kit (Promega, Madison Wis.)^4. […] Vehicle treated cells were used as control (0.001% DMSO). At the end of the incubation period, MTS reagent (3-(4,5-dimethylthiazol-2-yl)-5-(3-carboxymethoxyphenyl)-2-(4-sulfophenyl)-2H-tetrazolium)^12 was added to each well in fresh media to a final concentration of 0.5 mg/ml and incubated for 4 hours. Absorbance was measured at 490 nm using a microplate reader (Multiskan RC, Fisher Scientific Pittsburgh, Pa.). Cell viability is represented as the mean percentage+/−SD of absorbance before and after treatment.
Inactivation of caspases results in inhibition of caspase mediated apoptosis. […] The cell viability was measured by MTS assay.

IMR-32 cells = experiment: cells; conditions: Homo sapiens
Procedure: as §1, §2, §3

SMS-KCN cells = experiment: cells; conditions: Homo sapiens
Procedure: as §1, §2, §3

SMS-KCNR cells [2] = experiment: cells; conditions: Homo sapiens, read-out: concentration giving 50% inhibition in DNA synthesis (BrdU incorporation)
Procedure: (§4) Cells were labeled with 10 μM BrdU for 6 hours. The cells were fixed and the color was developed using peroxidase conjugated anti-BrdU antibody and TMB (3,3′,5,5′-tetramethylbenzidine) chromogenic substrate. Absorbance was measured at 450 nm using a microplate reader (Multiskan RC, Fisher Scientific, Pittsburgh, Pa.). In this assay, the color intensity correlates directly to the amount of BrdU incorporation which in turn reflects proliferation.

[3] = tested on: Human Endothelial Cells (HEC); experiment: cells; conditions: Endothelial cell, read-out: inhibition of DNA synthesis in HEC
Procedure: as §4
Human Endothelial Cells (HEC) (1×10^4 cells) were cultured in 96 well plates, serum deprived for 16 hours and treated with […], 1.25, 2.5, 5, 10 and 20 μg/ml in Medium 200 in the presence or absence of 50 ng/ml VEGF for 72 hours. BrdU (10 μM final concentration) was added to the cells and re-incubated for further 6 hours. The cells were fixed and the color was developed using anti-BrdU-POD antibody and TMB chromogenic substrate. The assay was performed according to the manufacturer's instructions. In this colorimetric cell proliferation assay, the color intensity correlates directly to the amount of BrdU incorporated into the DNA which in turn represents proliferation. The results are expressed as percentage BrdU incorporation.

Akt = conditions: SMS-KCNR
Procedure: as §2

caspase-3 = conditions: 1, 10 and 20 μg/ml, 24 hours
Procedure: as §2

SMS-KCNR cells [4] = conditions: 96 hours
Procedure: Vehicle treated cells were used as control.
Vehicle treated cells were used as control. […] The cells were washed with PBS, fixed with paraformaldehyde, permeabilized with Triton X-100 at room temperature, labeled with fluorescein-12-dUTP using terminal deoxynucleotidyl transferase and counterstained with propidium iodide (5 μg/ml). Negative controls (without terminal transferase) were included in each experiment. Apoptosis was detected by fluorescence microscopy (Nikon Eclipse TE2000-E fitted with a cooled CCD camera, Japan). Propidium iodide staining was used to detect both non-apoptotic and apoptotic cells and fluorescein staining was used to detect the apoptotic cells.

rat aortic rings = conditions: with growth factors, day 9
Excerpt: (A) Vehicle treated aorta without growth factor (B) Vehicle treated aorta with growth factor.
Matrigel bed mimics physiological extracellular matrix representing its natural composition and architecture. Due to these features, Matrigel enables several cell types, including endo-thelial cells, to maintain in culture their in vivo phenotype and 3-dimensional organization. Aortic arches were removed from euthanized rats and immediately transferred to a culture dish containing ice-cold serum-free media. The peri-aortic fibroadipose tissue was carefully removed with fine microdissection forceps and iridectomy scissors paying special attention not to damage the aortic wall. Aortic rings (1 mm thick) were sectioned and extensively rinsed in 5 consecutive washes of Medium 200. […] The explants were examined every second day with a Nikon Eclipse TS100 inverted microscope at an appropriate magnification and photographed at the end of 9th day. On the ninth day, the capillary sprouting were quantified by grading and recording the extent of sprouting directly reflecting angiogenesis using Nikon Eclipse TS100 fluorescent microscope (Japan) and Fuji digital camera.

neuroblastoma = conditions: for tumor marker VMA: initial VMA 22
Excerpt: Chagas disease is a parasitic disease caused by Trypanasoma cruzi endemic to South America.

ERK1/2 = conditions: SMS-KCNR, data not shown
SMS-KCNR cells [5] = conditions: 0-20 μg/ml, after 72 hours of treatment
SMS-KCNR cells [6] = conditions: 150 mg/kg/day in food pellets, 30 days, nude mice
sympathetic neurons = conditions: not seen in parasympathetic neurons or non-neuronal cells
HEC = experiment: cells; conditions: Homo sapiens, 8 h, read-out: inhibition of tube formation
Procedure: Stimulation with growth factors leads to morphological differentiation of endothelial cells and formation of tube like structures on matrices. The endothelial tube formation assay was performed in Matrigel bed. Briefly, Matrigel bed was prepared by using pre-cooled pipettes, plates and tubes on ice. Growth factor-reduced Matrigel was thawed overnight at 4° C. and mixed to homogeneity, Culture plates (48-well) were coated with 0.1 ml of Matrigel and allowed to gelatinize at 37° C. for 30 minutes. […] Capillary networks were photographed using a phase-contrast microscope (Nikon Eclipse TS 100, fitted with Fuji digital camera, Japan), and the number of tubes was quantified by counting the branching points from four quadrants of each well.

normal epithelial cells = normal epithelial cells in culture; cited from earlier work
[7] = study of 67 children using nifurtimox for Chagas disease; cited from earlier work
[8] = 120 h, read-out: cell viability
[9] = read-out: IC50, concentration required to reach 50% inhibition of growth

For `CC1CS(=O)(=O)CCN1/N=C/c1ccc([N+](=O)[O-])o1` (stereo not drawn) [Nifurtimox], which cytotoxicity at 10 µg/mL (SMS-KCNR cells [1]; 96 h, read-out: decrease of cell viability compared to vehicle treated control) is on record?
Its cytotoxicity at 10 µg/mL is 50%.

And the viability at 20 µg/mL (SMS-KCNR cells [1]; [8])?
Its viability at 20 µg/mL is 37%.

What about the IC50 (SMS-KCNR cells [1]; [9]) of the same molecule?
The IC50 was 14.7 µg/mL (≈ 51.2 µM).

And the viability at 10 µg/mL (SMS-KCNR cells [1]; read-out: cell viability with Z-VAD-FMK pretreatment)?
Its viability at 10 µg/mL is 90%.

What about the viability at 20 µg/mL (IMR-32 cells; IMR-32, 120 h, read-out: cell viability) of the same molecule?
The viability at 20 µg/mL was 78%.

What about the IC50 (IMR-32 cells; IMR-32, read-out: IC50, concentration required to reach 50% inhibition of growth) of the same molecule?
Its IC50 is 52.9 µg/mL (≈ 184 µM).

What about the viability at 20 µg/mL (SMS-KCN cells; [8]) of the same molecule?
The viability at 20 µg/mL was 59%.

What about the IC50 (SMS-KCN cells; [9]) of the same molecule?
The IC50 was 25.4 µg/mL (≈ 88.4 µM).

And the IC50 (SMS-KCNR cells [2])?
The IC50 was 18.1 µg/mL (≈ 63 µM).

And the inhibition at 5 µg/mL [3]?
Its inhibition at 5 µg/mL is 30%.

And the inhibition at 10 µg/mL [3]?
Its inhibition at 10 µg/mL is 50%.

And the inhibition at 20 µg/mL [3]?
The inhibition at 20 µg/mL was greater than 80%.

What about the “serum stimulated Akt phosphorylation” value (Akt; 1.0 and 10 μg/ml, in the presence of serum) of the same molecule?
The value was “completely inhibited”.

What about the “BDNF stimulated Akt phosphorylation” value (Akt; 10 and 20 μg/ml, BDNF stimulation) of the same molecule?
The value was “significantly inhibited”.

What about the “total Akt protein levels” value (Akt; BDNF stimulation) of the same molecule?
The value was “not altered”.

What about the “activation of caspase-3 (19 and 17 kDa bands)” value (caspase-3) of the same molecule?
The value was “dose dependent and strong activation”.

What about the morphological alterations (SMS-KCNR cells [4]; 1 μg/ml) of the same molecule?
Its morphological alterations is “decrease in axon length was apparent”.

And the morphological alterations (SMS-KCNR cells [4]; 10 μg/ml)?
Its morphological alterations is “the decrease in axon length was more prominent and was associated with rounding of cells”.

And the morphological alterations (SMS-KCNR cells [4]; 20 μg/ml)?
Its morphological alterations is “rounded up and floating”.

What about the “micro-vascular sprouting of aortic rings” value (rat aortic rings; 20 μg/ml) of the same molecule?
Its value is “complete inhibition of micro-vascular sprouting”.

What about the “capillary network of aortic rings” value (rat aortic rings; 1 and 10 μg/ml) of the same molecule?
The value was “sparse and incomplete”.

What about the tumor response (neuroblastoma; Patient A, after four months, with cyclophosphamide and topotecan) of the same molecule?
The tumor response was “significant and continuous tumor regression”.

And the tumor response (neuroblastoma; Patient A, after two weeks, Nifurtimox alone)?
Its tumor response is “tumor stabilization”.

What about the tumor markers (neuroblastoma; Patient B, after two months, with ascorbic acid, cyclophosphamide and topotecan) of the same molecule?
Its tumor markers is “normalization of tumor markers”.

And the “tumor marker VMA” value (neuroblastoma; Patient C, Day 21, before ascorbic acid)?
Its value is 17.

What about the “bone marrow tumor status” value (neuroblastoma; Patient C, Day 21, initially positive for tumor) of the same molecule?
Its value is “negative”.

And the “tumor marker VMA” value (neuroblastoma; Patient C, after 3 cycles of treatment)?
The value was 13.

And the tumor response (neuroblastoma; patient with Chagas disease, 15-20 mg/kg/day oral, with cyclophosphamide and topotecan)?
The tumor response was “tumor subsequently regressed”.

And the “tumor response after relapse” value (neuroblastoma; same patient restarted on nifurtimox, cyclophosphamide and topotecan)?
Its value is “again demonstrated tumor regression”.

And the tumor response (neuroblastoma; three patients with relapsed neuroblastoma, 20 mg/kg/day, alone or in combination)?
Its tumor response is “tumor regression”.

And the “phosphorylation of ERK1/2” value (ERK1/2)?
Its value is “not affected”.

What about the “apoptosis (TUNEL positive nuclei)” value (SMS-KCNR cells [5]) of the same molecule?
The value was “dose dependent increase in apoptosis”.

What about the “decrease in tumor size versus untreated” value (SMS-KCNR cells [6]) of the same molecule?
Its value is “greater than three fold decrease”.

And the tumor size (SMS-KCNR cells [6])?
The tumor size was 0.3 grams.

What about the “cytotoxicity after pretreatment with AMPT (tyrosine hydroxylase inhibitor)” value (neuroblastoma cell lines) of the same molecule?
Its value is “reduction of cytotoxicity”.

And the “sensitivity of sympathetic neurons to nifurtimox” value (sympathetic neurons)?
Its value is “enhanced sensitivity”.

What about the inhibition at 20 µg/mL (HEC) of the same molecule?
The inhibition at 20 µg/mL was 50%.

And the “cytotoxic effects on normal epithelial cells” value (normal epithelial cells)?
Its value is “not observed”.

And the “tolerability in children versus adults” value [7]?
The value was “much better tolerated in children”.
